Data as given in article PMC7809356, “Structural characterization of a GNAT family acetyltransferase from Elizabethkingia anophelis bound to acetyl-CoA reveals a new dimeric interface” (Scientific Reports, 2021).

Key:
[1] = target: T1, GNAT family acetyltransferase from Elizabethkingia anophelis (BAY10_3400) (Elizabethkingia anophelis, UniProt Z9UBX7MZA9); assay: X-ray crystallography, […] A; assay type: binding; conditions: co-crystallised with 5 mM acetyl-CoA, 100 mM Tris/HCl pH 5.5, 2 M ammonium sulfate, 285 K; active site
T1 construct: full length, non-cleavable N-terminal His6-tag (vector BG1861), expressed in E. coli Rosetta BL21(DE3)R3; all residues modelled except N-terminal Met; monomer and dimer in SEC, crystal from dimer peak

[2] = target: GNAT family acetyltransferase from Elizabethkingia anophelis (Elizabethkingia anophelis); assay: SEC; preparative HiLoad 26/60 Superdex 75 in 25 mM HEPES, 500 mM NaCl, 5% glycerol, 2 mM DTT, 0.025% azide pH 7.0; calibrated with conalbumin, ovalbumin and ribonuclease A; molecular weights from the elution volume

## CC(=O)SCCNC(=O)CCNC(=O)[C@H](O)C(C)(C)COP(=O)(O)OP(=O)(O)OC[C@H]1O[C@@H](n2cnc3c(N)ncnc32)[C@H](O)[C@@H]1OP(=O)(O)O [acetyl-CoA]
[1]
  X-ray crystallography, 1.85 A: Our structure contained a well-ordered acetyl-CoA molecule bound in the active site

## GNAT family acetyltransferase from Elizabethkingia anophelis (enzyme)
[2]
  stoichiometry N: 2
